In patent US12435090B2, “Compounds, pharmaceutical compositions, and methods of preparing compounds and of their use” (Repare Therapeutics Inc., priority 2021, dated 2025):
pIC50: −log10 of the molar value.

What follows are compounds tested against recombinant human Myt1 (Homo sapiens (Human), UniProt Q99640) (assay: Myt1 enzymatic assay (ADP-Glo kinase assay)). Settings: 18 nM enzyme, 10 uM ATP.
recombinant human Myt1, sequence (Q99640 whole entry): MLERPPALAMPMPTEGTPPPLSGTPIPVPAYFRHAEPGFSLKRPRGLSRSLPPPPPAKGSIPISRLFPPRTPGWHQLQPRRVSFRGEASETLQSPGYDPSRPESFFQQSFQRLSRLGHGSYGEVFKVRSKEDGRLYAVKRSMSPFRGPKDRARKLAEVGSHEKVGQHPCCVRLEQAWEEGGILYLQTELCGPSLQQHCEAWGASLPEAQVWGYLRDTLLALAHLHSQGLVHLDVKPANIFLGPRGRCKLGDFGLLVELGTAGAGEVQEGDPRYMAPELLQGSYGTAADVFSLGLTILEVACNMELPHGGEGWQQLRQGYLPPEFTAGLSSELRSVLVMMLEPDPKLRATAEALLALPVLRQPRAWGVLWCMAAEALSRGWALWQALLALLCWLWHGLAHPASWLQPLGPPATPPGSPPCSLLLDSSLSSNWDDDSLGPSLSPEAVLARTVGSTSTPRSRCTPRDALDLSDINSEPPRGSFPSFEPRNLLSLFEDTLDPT
Format: biochemical
Protocol: Detection of Myt1 kinase activity utilized a recombinant human Myt1 kinase assay measuring the hydrolysis of ATP using a commercially available ADP-Glo Assay (ADP-Glo™ Kinase Assay from Promega, 10 000 assays, #V9102). […] After this, 5 μL of compounds (diluted in reaction buffer to 0.5% DMSO) was added to the microplate and the plate was spun briefly and incubated at 22° C. for 15 minutes. Ultra-Pure Adenosine Triphosphate (ATP) solution (ADP-Glo kit from Promega) was diluted in reaction buffer and 5 μL was added to the microplate, spun down briefly and incubated for 60 minutes at 30° C. […] After the 60-minute incubation, 15 µL of ADP-Glo reagent was added and the plate was spun briefly and sealed and incubated in the dark for 40 minutes at 22° C. […] Luminescence was read using the Envision (250 ms integration). The IC50 and the % max inhibition were calculated for each inhibitor compound tested.
Compound `NC(=O)c1c(N)n(-c2cccc3[nH]ncc23)c2nccnc12` [Compound 277, 6-amino-5-(1H-indazol-4-yl)pyrrolo[2,3-b]pyrazine-7-carboxamide] has a pIC50 of 5.86. In the case of `Cc1ccc(O)c(C)c1-n1c(N)c(C(N)=O)c2nc(C3CCC3)cnc21` [Compound 173, 6-amino-2-cyclobutyl-5-(3-hydroxy-2,6-dimethyl-phenyl) pyrrolo[2,3-b]pyrazine-7-carboxamide], the pIC50 was greater than 8.00. `Cc1ccc(O)c(C)c1-n1c(N)c(S(C)(=O)=O)c2nc(-c3cnccn3)cnc21` [Compound 278] gave a pIC50 of less than 5.30. In the case of `Cc1ccc(O)c(C)c1-n1c(N)c(C(N)=O)c2nc(-c3cn(C)cn3)cnc21` [Compound 76], the pIC50 was greater than 8.00. Work on `CC(=O)N1CCN(c2cnc3c(n2)c(C(N)=O)c(N)n3-c2c(C)ccc(O)c2C)CC1` [Compound 87] yielded a pIC50 greater than 8.00. For `Cc1ccc(O)c(Br)c1-n1c(N)c(C(N)=O)c2cc(Cl)cnc21` [Compound 289], the pIC50 was greater than 8.00. For `Cc1ccc(O)c(C)c1-n1c(N)c(C(N)=O)c2cc(N3CCCC3=O)cnc21` [Compound 298], the pIC50 was greater than 8.00. In the case of `Cc1cc2c(C(N)=O)c(N)c(-c3c(C)ccc(O)c3C)n2cc1C` [Compound 336, 2-amino-3-(3-hydroxy-2,6-dimethylphenyl)-6,7-dimethylindolizine-1-carboxamide], the pIC50 was 7.42. In the case of `Cc1ccc(O)c(C)c1-n1c(N)c(C(N)=O)c2nc(C3CC3)c(C)nc21` [Compound 100], the pIC50 was greater than 8.00.
